In US20260209249A1, “NOVEL TRICYCLIC COMPOUND AS KRAS G12D INHIBITOR, AND USE THEREOF” (SK Biopharmaceuticals Co., priority 2022, published 2026):

Legend:
[1] = target: T1, GppNHp-KRAS G12D mutant protein (Homo sapiens, UniProt P01116, G12D); assay: Differential scanning fluorimetry (DSF) binding affinity to GppNHp-KRAS G12D mutant protein; settings: DSF thermal shift, 10 μM compound, 4 μg KRAS protein, 50 mM HEPES (pH 7.5)
T1 construct: purchased Daegu Gyeongbuk Medical Innovation Foundation (DGMIF), made to order
Description: (§1) Test Example 1: Measurement of Binding Affinity to KRAS G12D Mutant Protein The binding affinities of the compounds according to one embodiment of the present application to the KRAS G12D mutant protein were evaluated using differential scanning fluorimetry (DSF). Differential scanning fluorimetry (DSF) is a method used to study the stability of a protein upon binding to a compound. The experiment can be performed using a real-time PCR (RT-PCR) instrument, and is commonly employed as a screening technique for small-molecule compounds targeting specific proteins. As the temperature increases, folded proteins begin to unfold, during which a hydrophobic dye such as SYPRO Orange binds to the exposed hydrophobic regions of the protein, resulting in a measurable increase in fluorescence intensity (maximum absorption at 470 nm and maximum emission at 570 nm). Protein-compound binding is determined by the difference in the melting temperature (Tm) of the protein in the presence of the compound compared to the Tm in the absence of the compound, expressed as ΔTm. The binding affinity to the KRAS G12D mutant protein was measured using the Protein Thermal Shift Dye kit (#4461146, Applied Biosystems). The GDP-KRAS G12D mutant protein and GppNHp-KRAS G12D mutant protein used in the experiment were recombinant proteins synthesized by the Daegu Gyeongbuk Medical Innovation Foundation (DGMIF) upon request. The analysis of binding between the compound and the KRAS G12D mutant protein was performed according to the following reaction recipe: each test sample contained 4 μg of KRAS protein, 10 μM of the compound, and 2×SYPRO Orange dye. For the GDP-KRAS G12D protein samples, the buffer provided with the Protein Thermal Shift Dye kit was used, while for the GppNHp-KRAS G12D protein samples, 50 mM HEPES (pH 7.5) buffer was used. For the protein-compound binding reaction, the compound was added to the KRAS G12D mutant protein and reacted at room temperature for 30 minutes, followed by the addition of 2×SYPRO Orange dye. The temperature was increased to 25° C.-99° C. (0.05° C./s) using QuantStudiol RT-PCR instrument (Applied Biosystems), and fluorescence was measured using a ROX reporter with filters of 580±10 nm (excitation)/623±14 nm (emission). The measurements obtained at a compound concentration of 10 μM were analyzed using the Protein Thermal Shift Software program (version v1.4, Thermo Fisher Scientific), and the ΔTm (° C.) values, which indicate the binding affinity of the compound to the KRAS G12D mutant protein, were calculated. The DSF measurement results for the compounds according to one embodiment of the present application with respect to the KRAS G12D mutant protein are shown in Table 2.

[2] = target: T2, GDP-KRAS G12D mutant protein (Homo sapiens, UniProt P01116, G12D); assay: Differential scanning fluorimetry (DSF) binding affinity to GDP-KRAS G12D mutant protein; settings: DSF thermal shift, 10 μM compound, 4 μg KRAS protein
T2 construct: purchased Daegu Gyeongbuk Medical Innovation Foundation (DGMIF), made to order
Description: as §1

Nc1c(F)c(F)c(F)c(-c2cc3nc(OC[C@@]45CCCN4C[C@H](F)C5)nc(N4C[C@H]5CC[C@@H](C4)N5)c3n3ccnc23)c1F [Example 13, 3-(1-((1R,5S)-3,8-diazabicyclo[3.2.1]octan-3-yl)-3-(((2R,7aS)-2-fluorotetrahydro-1H-pyrrolizin-7a(51H)-yl)methoxy)imidazo[1′,2′:1,6]pyrido[3,2-d]pyrimidin-6-yl)-2,4,5,6-tetrafluoroaniline]
GppNHp-KRAS G12D (ΔTmD, ° C.) [1]: −0.61 °C | GDP-KRAS G12D (ΔTmD, ° C.) [2]: 0.28 °C

Cc1cc2c(o1)c(-c1c(Cl)c(C)cc3[nH]ncc13)c(F)c1nc(OC[C@@]34CCCN3C[C@H](F)C4)nc(N3C[C@H]4CC[C@@H](C3)N4)c12 [Example 51, 1-((1 R,5S)-3,8-diazabicyclo[3.2.1]octan-3-yl)-6-(5-chloro-6-methyl-1H-indazol-4-yl)-5-fluoro-3-(((2R,7aS)-2-fluorotetrahydro-1H-pyrrolizin-7a(5H)-yl)methoxy)-8-methylfuro[3,2-f]quinazoline]
GppNHp-KRAS G12D (ΔTmD, ° C.) [1]: 1.32 °C | GDP-KRAS G12D (ΔTmD, ° C.) [2]: 4.73 °C

C#Cc1c(F)ccc2cc(N)cc(-c3cc4nc(OC[C@@]56CCCN5CC(=C(F)F)C6)nc(N5[C@@H]6CC[C@H]5CNC6)c4n4ccnc34)c12 [Example 108, 4-(1-((1 R,5S)-3,8-diazabicyclo[3.2.1]octan-8-yl)-3-(((S)-2-(difluoromethylene)tetrahydro-1H-pyrrolizin-7a(5H)-yl)methoxy)imidazo[1′,2′:1,6]pyrido[3,2-d]pyrimidin-6-yl)-5-ethynyl-6-fluoronaphthalen-2-amine]
GppNHp-KRAS G12D (ΔTmD, ° C.) [1]: 5.36 °C | GDP-KRAS G12D (ΔTmD, ° C.) [2]: 8.47 °C

Nc1nc2c(-c3cc4nc(OC[C@@]56CCCN5C[C@H](F)C6)nc(N5[C@@H]6CC[C@H]5CNC6)c4n4ccnc34)ccc(F)c2s1 [Example 15, 4-(1-((1R,5S)-3,8-diazabicyclo[3.2.1]octan-8-yl)-3-(((2R,7aS)-2-fluorotetrahydro-1H-pyrrolizin-7a(5H)-yl)methoxy)imidazo[1′,2′:1,6]pyrido[3,2-d]pyrimidin-6-yl)-7-fluorobenzo[d]thiazol-2-amine]
GppNHp-KRAS G12D (ΔTmD, ° C.) [1]: 0.28 °C | GDP-KRAS G12D (ΔTmD, ° C.) [2]: −0.01 °C

C#Cc1c(F)ccc2cccc(-c3cc4nc(OC[C@@]56CCCN5C/C(=C\F)C6)nc(N5[C@@H]6CC[C@H]5CNC6)c4n4ccnc34)c12 [Example 22, 1-((1R,5S)-3,8-diazabicyclo[3.2.1]octan-8-yl)-6-(8-ethynyl-7-fluoronaphthalen-1-yl)-3-(((S,Z)-2-(fluoromethylene)tetrahydro-1H-pyrrolizin-7a(5H)-yl)methoxy)imidazo[1′,2′:1,6]pyrido[3,2-d]pyrimidine]
GppNHp-KRAS G12D (ΔTmD, ° C.) [1]: 1.02 °C | GDP-KRAS G12D (ΔTmD, ° C.) [2]: 4.28 °C

C#Cc1c(F)ccc2cccc(-c3cc4nc(OC[C@@]56CCCN5C/C(=C\F)C6)nc(N5C[C@H]6CC[C@@H](C5)N6)c4c4cn(C)nc34)c12 [Example 78, 9-((1 R,5S)-3,8-diazabicyclo[3.2.1]octan-3-yl)-4-(8-ethynyl-7-fluoronaphthalen-1-yl)-7-(((S,Z)-2-(fluoromethylene)tetrahydro-1H-pyrrolizin-7a(5H)-yl)methoxy)-2-methyl-2H-pyrazolo[4,3-n]quinazoline]
GppNHp-KRAS G12D (ΔTmD, ° C.) [1]: 1.17 °C | GDP-KRAS G12D (ΔTmD, ° C.) [2]: 5.46 °C

C#Cc1c(F)ccc2cc(O)cc(-c3cc4nc(OCC5(CN6CCCC6)CC5)nc(N5C[C@H]6CC[C@@H](C5)N6)c4n4ccnc34)c12 [Example 35, 4-(1-((1R,5S)-3,8-diazabicyclo[3.2.1]octan-3-yl)-3-((1-(pyrrolidin-1-ylmethyl)cyclopropyl)methoxy)imidazo[1′,2′:1,6]pyrido[3,2-d]pyrimidin-6-yl)-5-ethynyl-6-fluoronaphthalen-2-ol]
GppNHp-KRAS G12D (ΔTmD, ° C.) [1]: 2.68 °C | GDP-KRAS G12D (ΔTmD, ° C.) [2]: 8.91 °C

C#Cc1c(F)ccc2cc(O)cc(-c3cc4nc(OCC5(CN6CCC[C@H](F)C6)CC5)nc(N5[C@@H]6CC[C@H]5CNC6)c4n4ccnc34)c12 [Example 19, 4-(1-((1R,5S)-3,8-diazabicyclo[3.2.1]octan-8-yl)-3-((1-(((S)-3-fluoropiperidin-1-yl)methyl)cyclopropyl)methoxy)imidazo[1′,2′:1,6]pyrido[3,2-d]pyrimidin-6-yl)-5-ethynyl-6-fluoronaphthalen-2-ol]
GppNHp-KRAS G12D (ΔTmD, ° C.) [1]: 3.82 °C | GDP-KRAS G12D (ΔTmD, ° C.) [2]: 7.68 °C

Cn1cc2c(n1)c(-c1cc(O)cc3ccc(F)c(F)c13)cc1nc(OC[C@@]34CCCN3C/C(=C\F)C4)nc(N3C[C@H]4CC[C@@H](C3)N4)c12 [Example 84, 4-(9-((1R,5S)-3,8-diazabicyclo[3.2.1]octan-3-yl)-7-(((S,Z)-2-(fluoromethylene)tetrahydro-1H-pyrrolizin-7a(5H)-yl)methoxy)-2-methyl-2H-pyrazolo[4,3-f]quinazolin-4-yl)-5,6-difluoronaphthalen-2-ol]
GppNHp-KRAS G12D (ΔTmD, ° C.) [1]: 4.13 °C | GDP-KRAS G12D (ΔTmD, ° C.) [2]: 8.13 °C

C#Cc1c(F)ccc2cc(O)cc(-c3c(F)c4nc(N5CC(N(C)C)C5)nc(N5C[C@H]6CC[C@@H](C5)N6)c4c4cn(C)nc34)c12 [Example 72, 4-(9-((1R,5S)-3,8-diazabicyclo[3.2.1]octan-3-yl)-7-(3-(dimethylamino)azetidin-1-yl)-5-fluoro-2-methyl-2H-pyrazolo[4,3-n]quinazolin-4-yl)-5-ethynyl-6-fluoronaphthalen-2-ol]
GppNHp-KRAS G12D (ΔTmD, ° C.) [1]: 0.00 °C | GDP-KRAS G12D (ΔTmD, ° C.) [2]: −0.29 °C

C#Cc1c(F)ccc2cc(O)cc(-c3c(F)c4nc(OC[C@@]56CCCN5CC(=C(F)F)C6)nc(N5CC6CCC(C5)N6)c4c4cn(C)nc34)c12 [Example 91, 4-(9-((1R,5S)-3,8-diazabicyclo[3.2.1]octan-3-yl)-7-(((S)-2-(difluoromethylene)tetrahydro-1H-pyrrolizin-7a(5H)-yl)methoxy)-5-fluoro-2-methyl-2H-pyrazolo[4,3-n]quinazolin-4-yl)-5-ethynyl-6-fluoronaphthalen-2-ol]
GppNHp-KRAS G12D (ΔTmD, ° C.) [1]: −0.45 °C | GDP-KRAS G12D (ΔTmD, ° C.) [2]: −0.16 °C

C#Cc1c(F)ccc2cc(O)cc(-c3c(F)c4nc(OC[C@@]56CCCN5CC(=C(F)F)C6)nc(N5CC6CCC(C5)N6)c4c4cc(C)oc34)c12 [Example 66, 4-(1-((1R,5S)-3,8-diazabicyclo[3.2.1]octan-3-yl)-3-(((S)-2-(difluoromethylene)tetrahydro-1H-pyrrolizin-7a(5H)-yl)methoxy)-5-fluoro-8-methylfuro[3,2-n]quinazolin-6-yl)-5-ethynyl-6-fluoronaphthalen-2-ol]
GppNHp-KRAS G12D (ΔTmD, ° C.) [1]: 9.45 °C | GDP-KRAS G12D (ΔTmD, ° C.) [2]: 14.49 °C

C#Cc1c(F)ccc2cccc(-c3c(F)c4nc(OC[C@@]56CCCN5C[C@H](F)C6)nc(N5C[C@H]6CC[C@@H](C5)N6)c4c4cn(C)nc34)c12 [Example 82, 9-((1 R,5S)-3,8-diazabicyclo[3.2.1]octan-3-yl)-4-(8-ethynyl-7-fluoronaphthalen-1-yl)-5-fluoro-7-(((2R,7aS)-2-fluorotetrahydro-1H-pyrrolizin-7a(5H)-yl)methoxy)-2-methyl-2H-pyrazolo[4,3-n]quinazoline]
GppNHp-KRAS G12D (ΔTmD, ° C.) [1]: 3.26 °C | GDP-KRAS G12D (ΔTmD, ° C.) [2]: 7.52 °C
